Results from patent US20240101562A1, “NOVEL COMPOUND, AND PHARMACEUTICAL COMPOSITION FOR PREVENTING OR TREATING RESISTANT CANCER, COMPRISING SAME” (HOLOSMEDIC, priority 2020, published 2024).

Columns and labels:
Format in all cases: cell-based
[1] = tested on: SKOV3 cell line (epithelial ovarian cancer); test: WST-1 assay, co-treatment with docetaxel, SKOV3; settings: docetaxel alone, 0.75 nM, SKOV3, three days
Procedure: (§1) According to the results of WST-1 assays, which measure cell proliferation or survival, a reduction in metabolism in SKOV3 and SKOV3-TR was induced by docetaxel treatment.
(§2) After SKOV3 and SKOV3-TR were co-treated with 79 types of compounds and docetaxel, the WST-1 assays were performed.
(§3) Specifically, the two cancer cell lines grown in 96-well plates were treated with the 79 types of compounds at a low concentration (0.5 μM) or a high concentration (2 μM) and docetaxel, and the docetaxel concentration used herein were 1 μM for the SKOV3-TR cell line and 0.75 nM for the SKOV3 cell line. For cytotoxicity analysis, three days after the co-treatment of DMSO (docetaxel, compound solvent), docetaxel and the 79 types of compounds, the WST-1 assays were performed.

[2] = tested on: SKOV3-TR cell line (paclitaxel-resistant, derived from SKOV3); test: WST-1 assay, co-treatment with docetaxel, SKOV3-TR; settings: docetaxel alone, 1 μM, three days
Procedure: as §1, §2, §3

[3] = tested on: SKOV3 cell line (epithelial ovarian cancer); test: WST-1 assay, co-treatment with paclitaxel, SKOV3; settings: paclitaxel alone, 2 nM or 0.05 μM, SKOV3, three days
Procedure: (§4) According to the results of WST-1 assays, which measure cell proliferation or survival, a reduction in metabolism in SKOV3 and SKOV3-TR was induced by paclitaxel treatment. The WST-1 assays were performed after SKOV3 and SKOV3-TR were co-treated with 79 types of compounds and paclitaxel.
(§5) Specifically, the two cancer cell lines grown in 96-well plates were treated with the 79 types of compounds at a low concentration (0.5 μM) or a high concentration (2 μM) and paclitaxel, and the paclitaxel concentration used herein was 3 μM or 4 μM for the SKOV3-TR cell line, and 2 nM or 0.05 μM for the SKOV3 cell line. For cytotoxicity analysis, three days after co-treatment of DMSO (paclitaxel, compound solvent), paclitaxel and the 79 types of compounds, the WST-1 assays were performed.

[4] = tested on: SKOV3-TR cell line (paclitaxel-resistant, derived from SKOV3); test: WST-1 assay, co-treatment with paclitaxel, SKOV3-TR; settings: paclitaxel alone, 3 μM or 4 μM, three days
Procedure: as §4, §5

SMILES | absorbance at 450 nm compared to the DMSO-treated group [1] | absorbance at 450 nm compared to the DMSO-treated group [2] | absorbance at 450 nm compared to the DMSO-treated group [3] | absorbance at 450 nm compared to the DMSO-treated group [4]
CC(=O)O[C@@]12CO[C@@H]1C[C@H](O)[C@@]1(C)C(=O)[C@H](O)C3=C(C)[C@@H](OC(=O)[C@H](O)[C@@H](NC(=O)OC(C)(C)C)c4ccccc4)C[C@@](O)([C@@H](OC(=O)c4ccccc4)[C@H]21)C3(C)C [docetaxel] | reduced | reduced | – | –
CC(=O)O[C@H]1C(=O)[C@@]2(C)[C@H]([C@H](OC(=O)c3ccccc3)[C@]3(O)C[C@H](OC(=O)[C@H](O)[C@@H](NC(=O)c4ccccc4)c4ccccc4)C(C)=C1C3(C)C)[C@]1(OC(C)=O)CO[C@@H]1C[C@@H]2O [paclitaxel] | – | – | reduced | reduced
